From patent US20200131144A1, “AMINE OR (THIO)AMIDE CONTAINING LXR MODULATORS” (Phenex-FXR GmbH, priority 2017, published 2020)
Where two headings read alike, the source gives them in different places.

Columns and labels:
[1] = target: T1, GST-LXRβ ligand-binding domain (Homo sapiens, UniProt P55055, INS174Q); test: TR-FRETβ activity assay (NCoA3 coactivator peptide recruitment); assay type: biochemical; details: 1 μM 24(S)-25-epoxycholesterol as prestimulating agonist; inverse agonist unless *
T1 construct: amino acids 156-461; NP009052; made in house; host or cells: E. coli
T1 sequence (P55055 with tags, fused parts or gaps INS174Q limits assumed): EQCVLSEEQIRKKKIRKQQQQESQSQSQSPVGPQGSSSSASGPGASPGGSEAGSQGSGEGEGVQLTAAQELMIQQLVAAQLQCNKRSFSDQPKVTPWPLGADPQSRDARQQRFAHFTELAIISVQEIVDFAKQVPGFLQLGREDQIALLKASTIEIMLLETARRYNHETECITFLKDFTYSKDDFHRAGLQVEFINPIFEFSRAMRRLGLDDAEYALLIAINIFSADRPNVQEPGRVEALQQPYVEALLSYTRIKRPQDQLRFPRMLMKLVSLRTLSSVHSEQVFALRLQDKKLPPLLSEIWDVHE
In short: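 Coactivator recruitment read as TR-FRET (ex 340, em 615 and 665 nm) after 1 h equilibration at 4° C, in triplicate. Mix held 76 nM GST-tagged LXRβ LBD (aa 156-461, E. coli), 400 nM biotin-NCoA3 peptide, Tb-cryptate anti-GST, streptavidin-XL665, 240 mM KCl buffer.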

[2] = target: T2, LXRα ligand-binding domain (LBD) (Homo sapiens, UniProt Q13133); test: LXR Gal4 reporter transient transfection assay, mammalian two-hybrid, LBD-M2H Gal4α; assay type: cell-based; details: HEK293 cells; inverse agonist unless *
T2 construct: expressed in transfected cells; host or cells: HEK293
T2 sequence (Q13133 155-447): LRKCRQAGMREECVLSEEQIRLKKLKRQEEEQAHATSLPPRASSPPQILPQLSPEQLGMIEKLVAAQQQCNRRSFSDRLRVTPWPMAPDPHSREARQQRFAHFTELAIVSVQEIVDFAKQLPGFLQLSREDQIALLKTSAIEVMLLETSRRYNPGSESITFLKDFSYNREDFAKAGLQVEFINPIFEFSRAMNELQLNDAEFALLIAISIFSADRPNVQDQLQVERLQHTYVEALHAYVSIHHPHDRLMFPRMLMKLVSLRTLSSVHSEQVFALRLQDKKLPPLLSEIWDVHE
Procedure: (§1) The tested compounds were usually dissolved, tested and stored as 20 mM stock solutions in DMSO. Since sulfonyl acetic acid derivatives tend to decarboxylate under these conditions, these stock solutions were prepared, tested and stored as 20 mM DMSO stock solutions containing 100 mM trifluoroacetic acid (5 equivalents). Sulfonyl acetic acid derivatives are shelf stable as solid at rt for long time as reported by Griesbrecht et al. (Synlett 2010:374) or Faucher et al. (J. Med. Chem. 2004; 47:18).
(§2) LXR Gal4 Reporter Transient Transfection Assays
(§3) LXRα and LXRβ activity status was determined via detection of interaction with coactivator and corepressor proteins in mammalian two-hybrid experiments (M2H). For this, via transient transfection the full length (FL) proteins of LXRα (amino acids 1-447; NP005684; SEQ ID NO:1) or LXRβ-(amino acids 1-461; NP009052; SEQ ID NO:2) or the ligand-binding domains (LBD) of LXRα (amino acids 155-447 SEQ ID NO:3) or LXR (amino acids 156-461; SEQ ID NO:4) were expressed from pCMV-AD (Stratagene) as fusions to the transcriptional activation domain of NFkB. As cofactors, domains of either the steroid receptor coactivator 1 (SRC1; amino acids 552-887; SEQ ID NO:5) or of the corepressor NCoR (amino acids 1906-2312; NP006302; SEQ ID NO:6) were expressed as fusions to the DNA binding domain of the yeast transcription factor GAL4 (from pCMV-BD; Stratagene). Interaction was monitored via activation of a coexpressed Firefly Luciferase Reporter gene under control of a promoter containing repetitive GAL4 response elements (vector pFRLuc; Stratagene). Transfection efficiency was controlled via cotransfection of constitutively active pRL-CMV Renilla reniformis luciferase reporter (Promega). HEK293 cells were grown in minimum essential medium (MEM) with 2 mM L-glutamine and Earle's balanced salt solution supplemented with 8.3% fetal bovine serum, 0.1 mM non-essential amino acids, 1 mM sodium pyruvate, at 37° C. in 5% CO2. 3.5×10^4 cells/well were plated in 96-well cell culture plates in growth medium supplemented with 8.3% fetal bovine serum for 16-20 h to—90% confluency. For transfection, medium was taken off and LXR and cofactor expressing plasmids as well as the reporter plasmids are added in 30 μL OPTIMEM/well including polyethylene-imine (PEI) as vehicle. Typical amounts of plasmids transfected/well: pCMV-AD-LXR (5 ng), pCMV-BD-cofactor (5 ng), pFR-Luc (100 ng), pRL-CMV (0.5 ng). Compound stocks were prepared in DMSO, prediluted in MEM to a total volume of 120 μL, and added 4 h after addition of the transfection mixture (final vehicle concentration not exceeding 0.2%). Cells were incubated for additional 16 h, lysed for 10 min in 1×Passive Lysis Buffer (Promega) and Firefly and Renilla luciferase activities were measured sequentially in the same cell extract using buffers containing D-luciferine and coelenterazine, respectively. Measurements of luminescence were done in a BMG-luminometer.

[3] = target: T3, LXRβ ligand-binding domain (LBD) (Homo sapiens, UniProt P55055, INS174Q); test: LXR Gal4 reporter transient transfection assay, mammalian two-hybrid, LBD-M2H Gal4β; assay type: cell-based; details: HEK293 cells; inverse agonist unless *
T3 construct: or LXR (amino acids 156-461); expressed in transfected cells; host or cells: HEK293
T3 sequence (P55055 with tags, fused parts or gaps INS174Q limits assumed): T1 sequence (P55055 with tags, fused parts or gaps INS174Q limits assumed)
Procedure: as §1, §2, §3

[4] = Chemical stability of stock solutions and solids; assay type: physicochemical; details: sodium salt
Procedure: To a solution of compound 7/9 (150 mg, 0.24 mmol) in MeOH (10 mL) and water (10 mL) was added NaOH ([…], 0.48 mmol) at rt. The mixture was stirred at rt overnight and concentrated. The residue was washed with H2O to give compound 14 as a white solid.
as §1

LXR [5] = system: T4, LXR; test: Activity on LXR, assay not specified; details: confirmed by applicant
T4 construct: rows headed: activity on LXR; other: confirmed by applicant; LXRα (amino acids 1-447); NP005684; NP009052
Source text: The following compounds from this application, in particular, are further described in some publications, mainly from the same group of inventors/authors: SR9238 is described as a liver-selective LXR inverse agonist that suppresses hepatic steatosis upon parenteral administration (Griffett et al., ACS Chem. Biol. 2013; 8:559). […] This compound then has systemic exposure. In addition, it was described, that SR9238 suppresses fibrosis in a model of NASH again after parenteral administration (Griffett et al., Mol. Metab. 2015; 4:35). With a related SR9243 the effects on aerobic glycolysis (Warburg effect) and lipogenesis were described (Flaveny et al., Cancer Cell 2015; 28:42) and the NASH-supressing data obtained with SR9238 was confirmed by Huang et al. (BioMed Res. Int. 2018; 8071093) using SR9243.

LXR [6] = details: literature; cited from earlier work
[7] = Pharmacokinetics in mice after single oral dosing, blood and liver exposure by LC-MS; assay type: in vivo, mice (C57/bl6/J)
In short: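 Male C57BL/6J mice fasted ≥12 h, given a single oral dose of 20 mg/kg (n=3 per group). Sacrifice at 4, 12 or 24 h post-dose; liver and blood levels quantified by LC-MS.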

[8] = rat liver microsome; cited from earlier work
[9] = human liver microsome; cited from earlier work
[10] = single oral dose 20 mg/kg, time point 4 h, below LLOQ
[11] = single oral dose 20 mg/kg, time point 4 h

**Q.** Which EC50 [1] does the source give for `COc1cc(-c2ccc(CO)c(C(C)(C)C(=O)[O-])c2)ccc1CN(Cc1ccc(C(F)(F)F)o1)Cc1c(C)ccc2ccccc12.[Na+]` [Example 14] here?
**A.** Its EC50 is 1000 to 10000 nM.

**Q.** What about the EC50 [2] of the same molecule?
**A.** The EC50 was 1000 to 10000 nM.

**Q.** What about the EC50 [3] of the same molecule?
**A.** Its EC50 is under 100 nM.

**Q.** What about the stability upon standing [4] of the same molecule?
**A.** Its stability upon standing is “tends to cyclisize back to lacton 7/9 upon standing”.

**Q.** Which “activity on LXR” value (LXR [5]) does the source give for `Cc1cc(C)c(S(=O)(=O)N(Cc2ccc(-c3cccc(S(C)(=O)=O)c3)cc2)Cc2ccc(C(=O)O)o2)c(C)c1` [SR10389] here?
**A.** The value was “inactive on LXR”.

**Q.** What about the LXR activity (LXR [6]) of the same molecule?
**A.** Its LXR activity is “LXR inactive”.

**Q.** For `Cc1cc(C)c(S(=O)(=O)N(Cc2ccc(-c3cccc(S(C)(=O)=O)c3)cc2)Cc2ccc(C(F)(F)F)o2)c(C)c1` [GSK2033, reference compound], which oral bioavailability ([7]; single dose oral administration, 20 mg/kg) is on record?
**A.** The oral bioavailability was “not orally bioavailable and hepatoselective”.

**Q.** And the blood/plasma exposure [7, 10]?
**A.** The blood/plasma exposure was “(14.4 ng/mL)”.

**Q.** What about the liver exposure [7, 10] of the same molecule?
**A.** The liver exposure was “(9.6 ng/mL)”.

**Q.** And the “clearance ClInt” value [8]?
**A.** The value was over 1.0 mL/min/mg prot.

**Q.** And the “clearance ClInt” value [9]?
**A.** Its value is over 1.0 mL/min/mg prot.

**Q.** Which EC50 [1] does the source give for `Cc1ccc(CN(Cc2ccc(-c3cccc(C(C)(C)C(=O)O)c3)cc2)Cc2ccc(C(F)(F)F)o2)c2ccccc12` [24/1] here?
**A.** The EC50 was under 100 nM.

**Q.** And the EC50 [2]?
**A.** Its EC50 is under 100 nM.

**Q.** What about the EC50 [3] of the same molecule?
**A.** The EC50 was under 100 nM.

**Q.** And the Kp at 4 h ([7]; male, C57/bl6/J, mouse, liver/blood, single oral dose 20 mg/kg, time point 4 h, read-out: liver/blood ratio)?
**A.** The Kp at 4 h was 8.

**Q.** And the blood/plasma exposure [7, 11]?
**A.** Its blood/plasma exposure is 2.25 µM.

**Q.** What about the liver exposure [7, 11] of the same molecule?
**A.** The liver exposure was 18 µM.
